Measurements published in patent publication US7371739B2, “Aryl fructose-1,6-bisphosphatase inhibitors” (Metabasis Therapeutics, Inc., priority 2000, dated 2008).

What follows are molecules tested on human liver microsomes (P450 isozymes CYP3A4, CYP1A2, CYP2C9) (assay: Identification of the P450 Isozyme Involved in the Activation). Details: 0-100 μM P450 isozyme inhibitor.
Format: in vitro ADME
Description: Prodrugs are evaluated for human microsome-catalyzed conversion to parent compound in the absence and presence of specific inhibitors of three major P450 isozymes: ketoconazole (CYP3A4), furafylline (CYP1A2), and sulfaphenazole (CYP2C9).
Methods: Reaction (0.5 ml@37° C.) consist of 0.2 M KH2PO4, 13 mM glucose-6-phosphate, 2.2 mM NADP^+, 1 unit of glucose-6-phosphate dehydrogenase, 0-2.5 mg/ml human microsomal protein (In Vitro Technologies, In.), […], and 0-100 μM P450 isozyme inhibitor. Reactions are stopped by addition of methanol to a concentration of 60%, filtered ([…]), and lyophilized. Samples are resuspended in HPLC buffer (10 mM phosphate pH 5.5, 2.5 mM octyl-triethylammonium), loaded onto a YMC C8 HPLC column (250×4.6 mm), and eluted with a methanol gradient to 80%. Formuation of parent drug is confirmed by co-elution with an authentic parent drug standard.
Results: Prodrug is converted readily to parent drug in human liver microsomes.

Row | Compound | inhibition of formation of parent drug from prodrug by P450 isozyme inhibitor
1 | CC(=O)N1CCN(c2ccc(OCC3COC(Cn4ccnc4)(c4ccc(Cl)cc4Cl)O3)cc2)CC1 (stereo not drawn) [Ketoconazole] | inhibit the formation of parent drugs in a dose-dependent fashion
2 | Cc1nc2c([nH]1)c(=O)n(C)c(=O)n2Cc1ccco1 [fusafylline] | no significant inhibition
3 | Nc1ccc(S(=O)(=O)Nc2ccnn2-c2ccccc2)cc1 [sulfaphenazole] | no significant inhibition

The molecules below were run against T1, rat liver FBPase (Rattus norvegicus, UniProt P19112) (assay: Inhibition of Rat Liver FBPase). Details: assay identical to human liver FBPase; read-out: IC50 for AMP, rat liver FBPase.
T1 construct: made in house; host or cells: E. coli BL21
T1 sequence (P19112 2-363 limits assumed): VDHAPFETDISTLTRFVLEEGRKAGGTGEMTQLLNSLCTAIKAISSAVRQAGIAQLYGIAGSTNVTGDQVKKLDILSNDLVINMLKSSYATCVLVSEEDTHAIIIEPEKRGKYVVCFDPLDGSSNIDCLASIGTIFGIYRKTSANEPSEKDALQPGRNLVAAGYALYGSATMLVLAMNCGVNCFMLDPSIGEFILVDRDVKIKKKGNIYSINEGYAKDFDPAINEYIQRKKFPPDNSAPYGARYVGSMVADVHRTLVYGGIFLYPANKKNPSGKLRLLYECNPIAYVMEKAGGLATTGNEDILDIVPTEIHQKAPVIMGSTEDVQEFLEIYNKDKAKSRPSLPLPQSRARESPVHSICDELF
Format: biochemical
Description: Recombinant FBPase is purified as described (El-Maghrabi, M. R., and Pilkis, S. J. (1991) Biochem. Biophys. Res. Commun. 176, 137-144) The enzyme assay is identical to that described above for human liver FBPase. The IC50 for AMP is 20 μM.

Row | IC50 [µM] | Compound
4 | 20 | Nc1ncnc2c1ncn2[C@@H]1O[C@H](COP(=O)(O)O)[C@@H](O)[C@H]1O [AMP, reference compound]

Each molecule was assayed against T2, human liver FBPase (Homo sapiens, UniProt P09467) (assay: Inhibition of Human Liver FBPase). Details: not given.
T2 sequence (P09467 2-338 limits assumed): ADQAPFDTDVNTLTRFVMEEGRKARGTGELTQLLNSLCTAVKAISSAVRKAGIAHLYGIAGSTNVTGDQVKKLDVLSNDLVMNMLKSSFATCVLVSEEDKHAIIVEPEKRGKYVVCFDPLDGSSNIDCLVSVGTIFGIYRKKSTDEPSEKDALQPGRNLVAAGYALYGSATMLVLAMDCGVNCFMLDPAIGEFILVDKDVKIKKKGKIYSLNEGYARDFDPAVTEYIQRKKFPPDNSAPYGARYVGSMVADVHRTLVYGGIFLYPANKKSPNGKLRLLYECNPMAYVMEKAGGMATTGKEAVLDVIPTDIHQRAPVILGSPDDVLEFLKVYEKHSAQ

Row | Compound | IC50 [µM]
5 | O=[N+]([O-])c1cc(-c2ccc(P(=O)(O)O)o2)cc([N+](=O)[O-])c1 [Compound 1.01, 5-(3,5-Dinitrophenyl)-2-furanphosphonic Acid] | 0.31
6 | Nc1c(-c2ccc(P(=O)(O)O)o2)cc([N+](=O)[O-])cc1[N+](=O)[O-] [Compound 1.02] | 1.8
7 | COc1ccc(Cl)cc1-c1ccc(P(=O)(O)O)o1 [Compound 1.03] | 0.5
8 | O=C(NCP(=O)(O)O)c1ccc(Br)o1 [Compound 8.01, N-(Phosphonomethyl)-5-bromofuran-2-carboxamide] | 4
9 | O=C(OCP(=O)(O)O)c1ccc(Br)o1 [Compound 11.02] | 6.4
10 | O=[N+]([O-])c1cc(COCP(=O)(O)O)cc([N+](=O)[O-])c1 [Compound 13.02] | 9
11 | O=P(O)(O)C#Cc1ccccc1 [Compound 16.01, 1-Phosphono-2-phenylacetylene] | 89

More lines, now with the values ahead:

Row | IC50 [µM] | Compound
12 | 2.2 | O=P(O)(O)c1ccc(-c2ccc(F)cc2)o1 [Compound 2.01, 5-(4-Fluorophenyl)-2-furanphosphonic Acid]
13 | 3 | O=P(O)(O)c1ccc(-c2ccc(Cl)cc2Cl)o1 [Compound 2.02]
14 | 5.5 | Nc1cc(-c2ccc(P(=O)(O)O)o2)ccc1Br [Compound 3.01, 5-(4-Bromo-3-aminophenyl)-2-furanphosphonic Acid]
15 | 3 | COc1ccc(CNc2ccccc2)cc1-c1ccc(P(=O)(O)O)o1 [Compound 4.46]
16 | 0.14 | COc1ccc(CNc2ccc(O)cc2)cc1-c1ccc(P(=O)(O)O)o1 [Compound 4.48]
17 | 0.32 | COc1ccc(CNc2ccc(N)cc2)cc1-c1ccc(P(=O)(O)O)o1 [Compound 4.49]
18 | 6.5 | COc1ccc(CNc2ccc(NC(C)=O)cc2)cc1-c1ccc(P(=O)(O)O)o1 [Compound 4.50]
19 | 12 | COc1ccc(CN(C(C)=O)c2ccc(N)cc2)cc1-c1ccc(P(=O)(O)O)o1 [Compound 4.51]
20 | 4 | O=C(NCP(=O)(O)O)c1cc([N+](=O)[O-])cc([N+](=O)[O-])c1 [Compound 8.14]
21 | 2.8 | COc1cc(Cl)ccc1C(=O)OCP(=O)(O)O [Compound 11.01, Phosphonomethyl 4-Chloro-2-methoxybenzoate]
22 | 4.2 | COc1c(Br)cccc1C(=O)OCP(=O)(O)O [Compound 12.01, Phosphonomethyl 3-Bromo-2-methoxybenzoate]
23 | 11 | COc1cc(COCP(=O)(O)O)ccc1Br [Compound 13.01, 4-Bromo-3-methoxyphenylmethoxymethylphosphonic acid]

Same assay, conditions: read-out: IC50 for AMP, human liver FBPase; text value for reference AMP

Row | IC50 [µM] | Compound
24 | 1 | Nc1ncnc2c1ncn2[C@@H]1O[C@H](COP(=O)(O)O)[C@@H](O)[C@H]1O [AMP, reference compound]
